{"source": "patent US9233954B2", "about": "“Organic amine salts of Azilsartan, preparation method and use thereof” (Jiangsu Hansoh Pharmaceutical Co., Ltd., priority 2011, dated 2016)", "test_system": "Beagle dog", "type": "in vivo", "details": "for Clinical observations: intragastric", "source_text": "Acute Toxicity Test Research for Beagle Dog\nObject: Approximate lethal dose method was introduced in the test to observe the acute toxicity response of the animals by intragastric administration of example 2 or Azilsartan medoxomil potassium salt to Beagle dogs to study the toxicity situation of example 2 after administration and compare the toxicity of example 2 and Azilsartan medoxomil potassium salt, which can provide reference confirmation for the evaluation of toxicity of example 2.\nMethod (approximate lethal dose method): 6 Beagle dogs were used, 3 for each of example 2 group and Azilsartan medoxomil potassium salt group. The administration dosage was 0.09, 0.13, 0.19, 0.28, 0.42, 0.63, 0.95, 1.42, 2.13, 3.20 g·kg^−1 respectively, wherein 3.20 g·kg^−1 was the maximum administration dosage (corresponding to 1081 times the given dosage for the clinical patient). The blood was collected before administration and on days 2, 7, and 14 after administration to test the corresponding biochemical indicators. Electrocardiogram, body weight, and body temperature were determined before administration and on days 7 and 14 after administration.", "key": {"[1]": {"details": "Beagle dog, intragastric administration"}, "[2]": {"details": "all of the animals in the group, 1.42-3.20 g·kg^−1"}}, "note": "Where two headings read alike, the source gives them in different places.", "data": [{"smiles": "CCOc1nc2cccc(C(=O)O)c2n1Cc1ccc(-c2ccccc2-c2noc(=O)[nH]2)cc1.CCOc1nc2cccc(C(=O)[O-])c2n1Cc1ccc(-c2ccccc2-c2noc(=O)[nH]2)cc1.C[N+](C)(C)CCO", "note": "[Example 2]", "values": [{"measurement": "Dissection findings", "setting": "1.42 g·kg^−1 dosage group", "value": "the stomach was filled and contained amounts of particle food; the cardiac mucosa was red and showed sporadic red dot; other viscera did not show anomalies"}, {"measurement": "Clinical observations", "setting": "1.42 g·kg^−1 dosage group, Beagle dog", "value": "liquid stools and less moving, moving reduction on day 2 after administration, the moving recovered to normal on day 3 and no abnormality was observed after day 3"}, {"measurement": "Clinical observations", "setting": "2.13 g·kg^−1 dosage group, Beagle dog", "value": "on the day of administration no abnormality was observed and the animals showed vomit, moving reduction on day 2 after administration, loose stools and moving recovered on day 3, and the excreta recovered to normal on day 4 and no abnormality observed after day 4"}, {"measurement": "Dissection findings", "setting": "2.13 g·kg^−1 dosage group, day 15", "value": "the stomach was filled and contained amounts of particle food; the cardiac mucosa was red and showed sporadic red dot; other viscera did not show anomalies"}, {"measurement": "Blood biochemical indicators", "setting": "3.20 g·kg^−1 dosage", "value": "ALT of dogs with 3.20 g·kg^−1 dosage was increased on day 2 and recovered to normal on day 7"}, {"measurement": "Fib", "setting": "3.20 g·kg^−1 dosage", "value": "increased significantly on day 2 after administration"}, {"measurement": "Histopathology (HE, light microscope)", "setting": "3.20 g·kg^−1 dosage group", "value": "did not show obvious anomalies"}, {"measurement": "Clinical observations", "setting": "3.20 g·kg^−1 dosage group, Beagle dog", "value": "loose stools, liquid stools, vomit until the end of the observation and showed liquid stools, moving reduction on day 2 after administration, showed loose stools on day 3 and the moving recovered, the excreta recovered to normal on day 4 and no abnormality observed after that"}, {"measurement": "Systolic blood pressure and diastolic blood pressure", "setting": "5 animals of the two groups together", "value": "reduced more or less on day 2 after administration"}, {"measurement": "Acute toxicity, comparison", "setting": "[1]", "value": "lower than that of Azilsartan medoxomil potassium salt"}, {"measurement": "Approximate lethal dose", "setting": "[1]", "value": "more than 3.20 g·kg^−1"}, {"measurement": "Body temperature", "setting": "[2]", "value": "no abnormality on day 7 after administration"}, {"measurement": "Body weight", "setting": "[2]", "value": "decreased on day 7 after administration compared with pre-administration"}, {"measurement": "Electrocardiogram and haematological indicators", "setting": "[2]", "value": "not abnormal on day 7 after administration"}, {"measurement": "PT values", "setting": "all the animals of the group, after vs. pre-administration", "value": "reduced significantly after administration compared to pre-administration"}, {"measurement": "Blood biochemical indicators", "setting": "all the dogs of the group (1.42, 2.13, 3.20 g·kg^−1)", "value": "CRE, UREA and UA of all the dogs administered Example 2 compound were increased significantly on day 2 after administration, the CRE and UA increased significantly on day 7 after administration, and they recovered to normal on day 14"}]}]}
